Numbered stars: 1 amine (or outer) side, 2 acyl side, 3 side chain; on linkers, the order of the positions; unused ones are H or OH. Bridge positions count the residues as written; N and C are the ends. Square brackets hold non-standard residues; d marks the D form. Peptide text beside a SMILES is read from it. * marks the point of attachment. hPhe(3,5-F2-4-CF3) = N[C@@H](CCc1cc(F)c(C(F)(F)F)c(F)c1)C(=O)O; hPhe(3-Cl-4-CF3) = N[C@@H](CCc1ccc(C(F)(F)F)c(Cl)c1)C(=O)O; NMeAla(4-thiazolyl) = CN[C@@H](Cc1cscn1)C(=O)O; Thiomorpholino(1,1-dioxo) = O=S1(=O)CCN(*)CC1; NMe3Pal(6-Me) = CN[C@@H](Cc1ccc(C)nc1)C(=O)O; NMePhe(3-Cl) = CN[C@@H](Cc1cccc(Cl)c1)C(=O)O; NMePhe(4-Cl) = CN[C@@H](Cc1ccc(Cl)cc1)C(=O)O; NMePhe(4-Me) = CN[C@@H](Cc1ccc(C)cc1)C(=O)O; NMedβ3hAla = C[C@H](CC(=O)[*:2])N(C)[*:1]; X64 = O=C([C@H](Cc1ccc(Br)s1)N[*:1])[*:2]; NMeAla(cPent) = CN[C@@H](CC1CCCC1)C(=O)O; Phe(3-I) = N[C@@H](Cc1cccc(I)c1)C(=O)O; Pro(4,4-F2) = O=C(O)[C@@H]1CC(F)(F)CN1; NMeCha = CN[C@@H](CC1CCCCC1)C(=O)O; NMeGly(cPr) = CN[C@H](C(=O)O)C1CC1; NMeChg = CN[C@H](C(=O)O)C1CCCCC1; NMeI = CC[C@H](C)[C@H](NC)C(=O)O; NMeD = CN[C@@H](CC(=O)O)C(=O)O; NMeL = CN[C@@H](CC(C)C)C(=O)O; NMeNva = CCC[C@H](NC)C(=O)O; NMeV = CN[C@H](C(=O)O)C(C)C; d(β3hA) = C[C@@H](N)CC(=O)O; NMeA = CN[C@@H](C)C(=O)O; NMeAib = CNC(C)(C)C(=O)O; Nle = CCCC[C@H](N)C(=O)O; Piperidide = C1CCN(*)CC1; Pyrrolidide = C1CCN(*)C1; Ac5c = NC1(C(=O)O)CCCC1; Aze = O=C(O)[C@@H]1CCN1; Sar = CNCC(=O)O

The subject of this test is Human pancreatic cancer cell line AsPC-1 (G12D mutation Kras). Description: AsPC-1 cell growth inhibition (AsPC-1 CGI). It is filed as cell-based. The note with it: read-out: AsPC-1 cell growth inhibition, 50% growth inhibitory concentration (IC50 value); 96 hours, CellTiter-Glo, values classified in ranges. In general terms: Cellular ATP, detected with luciferase, serves as a proxy for viable cell number.
Experimental: Test compounds were serially dilated with dimethyl sulfoxide, and 200 nL was then dispensed to a U-bottom 96-well plate using Labcyte Echo. […] The cell suspension was dispensed to a. plate containing a test compound at 100 μL per well and incubated at 37° C. in a 5% carbon dioxide gas incubator. 96 hours later, 80 μL of CellTiter-Glo (Promega) was added to each well and fluorescence was measured.
With `CC[C@H](C)[C@@H]1NC(=O)[C@H](CC(C)C)N(C)C(=O)C[C@@H](C)NC(=O)[C@H](C(C)C)N(C)C(=O)C2(CCCC2)NC(=O)[C@@H]2CCCN2C(=O)[C@H](CCc2ccc(C(F)(F)F)c(Cl)c2)NC(=O)CN(C)C(=O)[C@H](CC2CCCCC2)N(C)C(=O)[C@@H]2CCCN2C(=O)CN(C)C1=O` [Compound 1050] (cyclo([Ac5c][NMeV][d(β3hA)][NMeL]I[Sar]P[NMeCha][Sar][hPhe(3-Cl-4-CF3)]P)), the IC50 is above 0.5 µM. The value for `CCCC[C@@H]1NC(=O)[C@H](Cc2ccc(Br)s2)NC(=O)CN(C)C(=O)[C@H](Cc2ccc(Cl)cc2)N(C)C(=O)CN(C)C(=O)CN(C)C(=O)[C@H]([C@@H](C)CC)NC(=O)[C@H](CC(C)C)N(C)C(=O)C[C@@H](C(=O)N2CCCCC2)N(C)C(=O)[C@H](CC(C)C)NC(=O)C(C)(C)N(C)C1=O` [Compound 1216] ([NMeL]I[Sar][Sar][NMePhe(4-Cl)][Sar][X64][Nle][NMeAib]L[NMeD]-Piperidide; lactam N-11) was above 0.5 µM; that for `CCCC[C@@H]1NC(=O)[C@H](Cc2cccc(I)c2)NC(=O)CN(C)C(=O)[C@H](Cc2ccc(Cl)cc2)N(C)C(=O)CN(C)C(=O)CN(C)C(=O)[C@H]([C@@H](C)CC)NC(=O)[C@H](CC(C)C)N(C)C(=O)C[C@@H](C(=O)N2CCCCC2)N(C)C(=O)[C@H](CC(C)C)NC(=O)[C@H](Cc2cccc(Cl)c2)N(C)C1=O` [Compound 1044] ([NMeL]I[Sar][Sar][NMePhe(4-Cl)][Sar][Phe(3-I)][Nle][NMePhe(3-Cl)]L[NMeD]-Piperidide; lactam N-11) was above 0.5 µM; that for `CC[C@H](C)[C@@H]1NC(=O)[C@H](CC(C)C)N(C)C(=O)C[C@@H](C(=O)N2CCCCC2)N(C)C(=O)[C@H](C2CCCCC2)N(C)C(=O)C2(CCCC2)NC(=O)[C@H](Cc2ccc(C)nc2)N(C)C(=O)[C@H](CCc2ccc(C(F)(F)F)c(Cl)c2)NC(=O)CN(C)C(=O)[C@H](CC2CCCCC2)N(C)C(=O)[C@@H]2CCN2C(=O)CN(C)C1=O` [Compound 786] ([NMeL]I[Sar][Aze][NMeCha][Sar][hPhe(3-Cl-4-CF3)][NMe3Pal(6-Me)][Ac5c][NMeChg][NMeD]-Piperidide; lactam N-11) was above 0.5 µM. Then `CCC[C@H]1C(=O)N[C@@H]([C@@H](C)CC)C(=O)N(C)CC(=O)N(C)CC(=O)N(C)[C@@H](CC2CCCCC2)C(=O)N(C)CC(=O)N[C@@H](CCc2cc(F)c(C(F)(F)F)c(F)c2)C(=O)N2CC(F)(F)C[C@H]2C(=O)NC2(CCCC2)C(=O)N(C)[C@@H](C2CCCCC2)C(=O)N(C)[C@H](C(=O)N2CCCC2)CC(=O)N1C` [Compound 1160] ([NMeNva]I[Sar][Sar][NMeCha][Sar][hPhe(3,5-F2-4-CF3)][Pro(4,4-F2)][Ac5c][NMeChg][NMeD]-Pyrrolidide; lactam N-11), with at most 0.02 µM; and `CC[C@H](C)[C@@H]1NC(=O)[C@H](CC(C)C)N(C)C(=O)C[C@@H](C)N(C)C(=O)[C@H](CC2CCCC2)N(C)C(=O)C2(CCCC2)NC(=O)[C@@H]2CCCN2C(=O)[C@H](CCc2ccc(C(F)(F)F)c(Cl)c2)NC(=O)CN(C)C(=O)[C@H](CC2CCCCC2)N(C)C(=O)CN(C)C(=O)CN(C)C1=O` [Compound 991] (cyclo([Ac5c][NMeAla(cPent)][NMedβ3hAla][NMeL]I[Sar][Sar][NMeCha][Sar][hPhe(3-Cl-4-CF3)]P)), with above 0.5 µM; and `CC[C@H](C)[C@@H]1NC(=O)[C@H](CC(C)C)N(C)C(=O)C[C@@H](C(=O)N(C)C)N(C)C(=O)[C@H]([C@@H](C)CC)N(C)C(=O)[C@H](C(C)C)NC(=O)[C@H](Cc2cscn2)N(C)C(=O)[C@H](CCc2ccc(C(F)(F)F)c(Cl)c2)NC(=O)CN(C)C(=O)[C@H](Cc2ccc(C)cc2)N(C)C(=O)[C@@H]2CCN2C(=O)[C@H](C)N(C)C1=O` [Compound 982] ([NMeL]I[NMeA][Aze][NMePhe(4-Me)][Sar][hPhe(3-Cl-4-CF3)][NMeAla(4-thiazolyl)]V[NMeI][NMeD]-NMe2; lactam N-11), with above 0.5 µM.

Turning to `CC[C@H](C)[C@@H]1NC(=O)[C@H](CC(C)C)N(C)C(=O)C[C@@H](C(=O)N2CCCCC2)N(C)C(=O)[C@H](C2CC2)N(C)C(=O)C2(CCCC2)NC(=O)[C@@H]2CCCN2C(=O)[C@H](CCc2ccc(C(F)(F)F)c(Cl)c2)NC(=O)CN(C)C(=O)[C@H](CC2CCCCC2)N(C)C(=O)CN(C)C(=O)CN(C)C1=O` [Compound 197] ([NMeL]I[Sar][Sar][NMeCha][Sar][hPhe(3-Cl-4-CF3)]P[Ac5c][NMeGly(cPr)][NMeD]-Piperidide; lactam N-11), the IC50 was above 0.5 µM.

`CC[C@H](C)[C@@H]1NC(=O)[C@H](CC(C)C)N(C)C(=O)C[C@@H](C(=O)N2CCS(=O)(=O)CC2)N(C)C(=O)[C@H](C(C)C)N(C)C(=O)C2(CCCC2)NC(=O)[C@@H]2CCCN2C(=O)[C@H](CCc2ccc(C(F)(F)F)c(Cl)c2)NC(=O)CN(C)C(=O)[C@H](CC2CCCCC2)N(C)C(=O)[C@@H]2CCN2C(=O)[C@H](C)N(C)C1=O` [Compound 1238] ([NMeL]I[NMeA][Aze][NMeCha][Sar][hPhe(3-Cl-4-CF3)]P[Ac5c][NMeV][NMeD]-{Thiomorpholino(1,1-dioxo)}; lactam N-11): the IC50 was above 0.5 µM.

The record behind these values is patent US20240148821A1, “PHARMACEUTICAL USE OF CYCLIC PEPTIDE COMPOUND” (CHUGAI SEIYAKU KABUSHIKI KAISHA, priority 2021, published 2024).
